Measurements: paper PMC11314295, “Discovery of Curcuminoids as Pancreatic Lipase Inhibitors from Medicine-and-Food Homology Plants” (Nutrients, 2024)
Converted amounts (≈) assume the structure as drawn. “Also recorded” adds a separate entry of the source.

Experiments:
[1] = target: T1, pancreatic lipase (Sus scrofa, UniProt P00591); assay: Circular dichroism measurement of secondary structure; design: species or system porcine; details: for β-Turn (%) of pancreatic lipase / α-Helix (%) of pancreatic lipase / β-Sheet (%) of pancreatic lipase / Random Coil (%) of pancreatic lipase: lipase:compound molar ratio 1:1, 37 °C, 5 min; for β-Turn (%) of pancreatic lipase: lipase alone 14.8; for α-Helix (%) of pancreatic lipase: lipase alone 17.7; for β-Sheet (%) of pancreatic lipase: lipase alone 25.4; for Random Coil (%) of pancreatic lipase: lipase alone 42.1; for decrease of β-sheet of pancreatic lipase / increase of α-helix content of pancreatic lipase: relative to pancreatic lipase alone
T1 sequence (P00591 1-450): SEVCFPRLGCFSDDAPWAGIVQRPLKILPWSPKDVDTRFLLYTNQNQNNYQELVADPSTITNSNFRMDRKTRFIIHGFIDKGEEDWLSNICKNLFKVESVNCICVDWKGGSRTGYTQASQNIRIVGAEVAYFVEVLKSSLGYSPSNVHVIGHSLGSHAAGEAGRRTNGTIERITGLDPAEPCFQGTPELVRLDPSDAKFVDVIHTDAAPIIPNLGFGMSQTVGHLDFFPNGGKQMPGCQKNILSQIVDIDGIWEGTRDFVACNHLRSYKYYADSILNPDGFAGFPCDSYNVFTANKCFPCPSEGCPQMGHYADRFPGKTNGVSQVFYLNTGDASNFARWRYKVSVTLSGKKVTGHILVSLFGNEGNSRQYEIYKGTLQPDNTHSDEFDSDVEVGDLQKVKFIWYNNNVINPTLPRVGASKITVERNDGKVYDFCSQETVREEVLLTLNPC

[2] = target: T1, pancreatic lipase; assay: Fluorescence spectrometry (tryptophan fluorescence quenching, Stern-Volmer); details: for ΔH (enthalpy) / ΔS (entropy change): Van't Hoff, 298 and 310 K
[3] = target: T1, pancreatic lipase; assay: Enzyme inhibition kinetics (Lineweaver-Burk analysis); format: biochemical, porcine; details: for inhibition type: Lineweaver-Burk plots, Vmax unchanged; for reversibility of inhibition: plots of v versus enzyme concentration
[4] = target: T1, pancreatic lipase; assay: Affinity screening by ultrafiltration coupled with HPLC; format: binding, porcine; details: from change of HPLC peak area at 425 nm, turmeric extract, versus heat-inactivated enzyme
[5] = target: T2, pancreatic lipase from porcine pancreas type II (Sus scrofa, UniProt P00591); assay: Pancreatic lipase inhibition in vitro (p-nitrophenyl butyrate hydrolysis, absorbance 410 nm); format: biochemical; details: curcuminoid chemical standards
T2 sequence (P00591 1-450): T1 sequence (P00591 1-450)

[6] = target: pancreatic lipase; details: cited from earlier work

Row | β-Turn (%) of pancreatic lipase [1] [%] | α-Helix (%) of pancreatic lipase [1] [%] | β-Sheet (%) of pancreatic lipase [1] [%] | decrease of β-sheet of pancreatic lipase [1] [%] | Ka (binding constant), bound stated [2] [L/mol] | binding sites [2] | Kq (fluorescence-quenching rate constant) ([2]; 298 K) | n (binding sites) ([2]; 298 K) | ΔG (free energy) ([2]; 298 K) [kcal/mol] | ΔG (free energy) ([2]; 310 K) [kcal/mol] | ΔS (entropy change) [2] [J·mol^−1·K] | reversibility of inhibition [3] | SMILES | Random Coil (%) of pancreatic lipase [1] [%] | increase of α-helix content of pancreatic lipase [1] [%] | Kq, compared with maximum dynamic quenching constant [2] [M⁻¹ s⁻¹] | Kq (fluorescence-quenching rate constant) ([2]; 310 K) | n (binding sites) ([2]; 310 K) | ΔH (enthalpy) [2] [kcal/mol] | inhibition type [3] | binding rate to pancreatic lipase [4] [%] | further results
1 | 15.9 | 21.3 | 21.7 | 14.57 | > 10000 | ~1 | 1.6 ± 0.07 ×10^12 L·mol^−1·s^−1 | 1.13 ± 0.03 | -5.476 ± 0.0574 | -5.98 ± 0.0359 | −14.33 ± 0.14 | reversible | O=C(/C=C/c1ccc(O)cc1)CC(=O)/C=C/c1ccc(O)cc1 [bisdemethoxycurcumin, Bisdemethoxycurcumin] |  |  |  |  |  |  | competitive inhibitors; also recorded: reversible competitive inhibition |  | 
2 |  |  |  |  |  |  |  |  |  |  |  |  | C=C(C)[C@@H]1CC[C@]2(C(=O)O[C@@H]3O[C@H](CO[C@@H]4O[C@H](CO)[C@@H](O[C@@H]5O[C@@H](C)[C@H](O)[C@@H](O)[C@H]5O)[C@H](O)[C@H]4O)[C@@H](O)[C@H](O)[C@H]3O)CC[C@]3(C)[C@H](C[C@H]4OC(=O)C[C@@H](O)[C@]5(C)[C@@H]4[C@@]3(C)CC[C@H]5C(=C)C)[C@@H]12 [chiisanoside] |  |  |  |  |  |  |  |  | IC50 [6]: 740 µg/mL (≈ 775 µM)
3 | 15.7 | 34.3 | 15.3 | 39.76 | > 10000 | ~1 | 1.94 ± 0.10 ×10^12 L·mol^−1·s^−1 | 1.14 ± 0.02 | -5.762 ± 0.0311 | -6.319 ± 0.0598 | −23.99 ± 0.10 | reversible | COc1cc(/C=C/C(=O)CC(=O)/C=C/c2ccc(O)c(OC)c2)ccc1O [curcumin, Curcumin] | 34.7 | 93.78 | > 2e+10 | 4.28 ± 0.25 ×10^12 L·mol^−1·s^−1 | 1.2 ± 0.02 | -8.098 ± 0.0717 | competitive inhibitors; also recorded: reversible competitive inhibition | 54.69 | 

Row | SMILES | β-Turn (%) of pancreatic lipase [1] [%] | α-Helix (%) of pancreatic lipase [1] [%] | β-Sheet (%) of pancreatic lipase [1] [%] | decrease of β-sheet of pancreatic lipase [1] [%] | Ka (binding constant), bound stated [2] [L/mol] | binding sites [2] | Kq (fluorescence-quenching rate constant) ([2]; 298 K) | n (binding sites) ([2]; 298 K) | ΔG (free energy) ([2]; 298 K) [kcal/mol] | ΔG (free energy) ([2]; 310 K) [kcal/mol] | ΔS (entropy change) [2] [J·mol^−1·K] | reversibility of inhibition [3] | Random Coil (%) of pancreatic lipase [1] [%] | increase of α-helix content of pancreatic lipase [1] [%] | Kq, compared with maximum dynamic quenching constant [2] [M⁻¹ s⁻¹] | Kq (fluorescence-quenching rate constant) ([2]; 310 K) | n (binding sites) ([2]; 310 K) | ΔH (enthalpy) [2] [kcal/mol] | inhibition type [3] | binding rate to pancreatic lipase [4] [%] | further results
4 | COc1cc(/C=C/C(O)=C/C(=O)/C=C/c2ccc(O)cc2)ccc1O [demethoxycurcumin, Demethoxycurcumin] | 16.5 | 26.4 | 16.9 | 33.46 | > 10000 | ~1 | 1.64 ± 0.13 ×10^12 L·mol^−1·s^−1 | 1.12 ± 0.04 | -5.564 ± 0.0335 | -6.09 ± 0.0502 | −18.82 ± 0.09 | reversible | 40.2 | 49.15 | > 2e+10 | 3.61 ± 0.24 ×10^12 L·mol^−1·s^−1 | 1.40 ± 0.01 | -7.483 ± 0.0526 | competitive inhibitors; also recorded: reversible competitive inhibition | 49.33 | maximum emission peak of pancreatic lipase after addition (blueshift from 350 nm) ([2]; excitation 280 nm): 342 nm; Ki ([3]; pancreatic lipase 5 mg/mL, p-nitrophenyl butyrate substrate, read-out: Ki (inhibition constant)): 840 ± 40 µM; IC50 [5]: 3310 µM
